Measured values taken from PubChem BioAssay AID330 (DTP/NCI, 2004).
“And” between values parts separate entries of the source, which are not always exact repeats. Equal entries are not always repeated. Toxic doses and inconclusive results are not listed. The calls were made as follows: active = survival T/C of 150% or more; inactive = T/C below 125% in these data.

Test system: P388 leukemia ip, CD2F1 mice, survival T/C
Test: NCI In Vivo Anticancer Drug Screen. Data for tumor model P388 Leukemia (intraperitoneal) in CD2F1 (CDF1) mice
Details: endpoint: median survival time, higher = longer survival
Summary of the method: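 Mice carrying the transplanted tumor received test compound or vehicle. Survival was recorded in each group, and the value is the treated-group measurement divided by that of the vehicle-treated control group.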

[1] = dose: 4.0 mg/kg/injection, schedule: Q01DX009 (ip), vehicle: Klucel (hydroxypropylcellulose) (HPC)
[2] = dose: 60.0 mg/kg/injection, schedule: Q01DX005 (ip), vehicle: Klucel (hydroxypropylcellulose) (HPC)
[3] = dose: 25.0 mg/kg/injection, schedule: Q01DX009 (ip), vehicle: saline with Tween-80
[4] = dose: 50.0 mg/kg/injection, schedule: Q01DX009 (ip), vehicle: saline with Tween-80
[5] = dose: 100.0 mg/kg/injection, schedule: Q01DX009 (ip), vehicle: saline with Tween-80
[6] = dose: 200.0 mg/kg/injection, schedule: Q01DX009 (ip), vehicle: saline with Tween-80
[7] = dose: 12.5 mg/kg/injection, schedule: Q01DX009 (ip), vehicle: saline
[8] = dose: 25.0 mg/kg/injection, schedule: Q01DX009 (ip), vehicle: saline
[9] = dose: 50.0 mg/kg/injection, schedule: Q01DX009 (ip), vehicle: saline

Measured: T/C

Cc1c2nc(N)nc-2ccc2[nH]c(N)nc12
inactive: dose: 0.5 mg/kg/injection, schedule: Q01DX009 (ip), vehicle: Klucel (hydroxypropylcellulose) (HPC) 102 % of control | dose: 1.0 mg/kg/injection, schedule: Q01DX009 (ip), vehicle: Klucel (hydroxypropylcellulose) (HPC) 108 % of control | dose: 2.0 mg/kg/injection, schedule: Q01DX009 (ip), vehicle: Klucel (hydroxypropylcellulose) (HPC) 108 % of control | [1] 102 % of control

CC(=O)N1CN=C2Sc3ccccc3N2C1
inactive: dose: 15.0 mg/kg/injection, schedule: Q01DX005 (ip), vehicle: Klucel (hydroxypropylcellulose) (HPC) 103 % of control | dose: 30.0 mg/kg/injection, schedule: Q01DX005 (ip), vehicle: Klucel (hydroxypropylcellulose) (HPC) 105 % of control | [2] 100 % of control and 104 % of control

CN1CCN(C(=S)C(O)(c2ccccc2)c2ccccc2)CC1
inactive: dose: 100.0 mg/kg/injection, schedule: Q01DX001 (ip), vehicle: Klucel (hydroxypropylcellulose) (HPC) 105 % of control | dose: 200.0 mg/kg/injection, schedule: Q01DX001 (ip), vehicle: Klucel (hydroxypropylcellulose) (HPC) 105 % of control | dose: 400.0 mg/kg/injection, schedule: Q01DX001 (ip), vehicle: Klucel (hydroxypropylcellulose) (HPC) 100 % of control

COc1ccc(C(c2cc3c(cc2O)OCO3)N2CCCCC2)c(OC)c1 (stereo not drawn)
inactive: [2] 108 % of control | dose: 120.0 mg/kg/injection, schedule: Q01DX005 (ip), vehicle: Klucel (hydroxypropylcellulose) (HPC) 110 % of control | dose: 240.0 mg/kg/injection, schedule: Q01DX005 (ip), vehicle: Klucel (hydroxypropylcellulose) (HPC) 117 % of control

CC1(C)OC(=O)C(CCc2ccccn2)(CCc2ccccn2)C(=O)O1
inactive: dose: 12.5 mg/kg/injection, schedule: Q01DX009 (ip), vehicle: saline with Tween-80 113 % of control | [3] 103 % of control | [4] 110 % of control | [5] 114 % of control | [6] 104 % of control

C=CC(C)(C)C12CC3C(=O)N/C(=C\c4cnc[nH]4)C(=O)N3C1Nc1ccccc12 (stereo not drawn)
inactive: dose: 6.25 mg/kg/injection, schedule: Q01DX009 (ip), vehicle: Klucel (hydroxypropylcellulose) (HPC) 118 % of control and 97 % of control | dose: 6.25 mg/kg/injection, schedule: Q01DX009 (ip), vehicle: saline with Tween-80 86 % of control | dose: 12.5 mg/kg/injection, schedule: Q01DX009 (ip), vehicle: Klucel (hydroxypropylcellulose) (HPC) 116 % of control and 95 % of control | dose: 25.0 mg/kg/injection, schedule: Q01DX009 (ip), vehicle: Klucel (hydroxypropylcellulose) (HPC) 98 % of control and 106 % of control | [3] 92 % of control | dose: 50.0 mg/kg/injection, schedule: Q01DX009 (ip), vehicle: Klucel (hydroxypropylcellulose) (HPC) 106 % of control and 109 % of control | [4] 100 % of control

CCOC(OCC)N(C)C
inactive: dose: 60.0 mg/kg/injection, schedule: Q01DX005 (ip), vehicle: saline 95 % of control | dose: 120.0 mg/kg/injection, schedule: Q01DX005 (ip), vehicle: saline 100 % of control | dose: 240.0 mg/kg/injection, schedule: Q01DX005 (ip), vehicle: saline 93 % of control

C[CH2][Ge]1([CH2]C)[CH2]CC2(CCN(CCCN(C)C)C2)C[CH2]1
inactive: dose: 0.09 mg/kg/injection, schedule: Q01DX009 (ip), vehicle: saline 103 % of control | dose: 0.19 mg/kg/injection, schedule: Q01DX009 (ip), vehicle: saline 103 % of control and 98 % of control | dose: 0.39 mg/kg/injection, schedule: Q01DX009 (ip), vehicle: saline 101 % of control and 103 % of control | dose: 0.78 mg/kg/injection, schedule: Q01DX009 (ip), vehicle: saline 100 % of control and 104 % of control | dose: 1.56 mg/kg/injection, schedule: Q01DX009 (ip), vehicle: saline 100 % of control and 92 % of control | dose: 3.12 mg/kg/injection, schedule: Q01DX009 (ip), vehicle: saline 104 % of control and 98 % of control | dose: 6.25 mg/kg/injection, schedule: Q01DX009 (ip), vehicle: saline 104 % of control | dose: 6.28 mg/kg/injection, schedule: Q01DX009 (ip), vehicle: water 101 % of control | [7] 101 % of control and 104 % of control | dose: 12.5 mg/kg/injection, schedule: Q01DX009 (ip), vehicle: water 106 % of control | [8] 100 % of control and 105 % of control | dose: 25.0 mg/kg/injection, schedule: Q01DX009 (ip), vehicle: water 107 % of control | [9] 100 % of control and 98 % of control | dose: 50.0 mg/kg/injection, schedule: Q01DX009 (ip), vehicle: water 123 % of control | dose: 75.0 mg/kg/injection, schedule: Q01DX009 (ip), vehicle: saline 103 % of control and 104 % of control

O=S1(=O)N=C([O-])c2ccc(C[N+]3(CCCl)CCN(CCCl)CC3)cc21
inactive: dose: 12.5 mg/kg/injection, schedule: Q01DX009 (ip), vehicle: DMSO 87 % of control | dose: 25.0 mg/kg/injection, schedule: Q01DX009 (ip), vehicle: DMSO 105 % of control | dose: 50.0 mg/kg/injection, schedule: Q01DX009 (ip), vehicle: DMSO 87 % of control | dose: 100.0 mg/kg/injection, schedule: Q01DX009 (ip), vehicle: DMSO 115 % of control

CN(C)c1ccc2nc3ccc(N)cc3[n+](-c3ccccc3)c2c1
inactive: dose: 3.12 mg/kg/injection, schedule: Q01DX005 (ip), vehicle: saline 106 % of control | dose: 6.25 mg/kg/injection, schedule: Q01DX005 (ip), vehicle: saline 106 % of control | dose: 12.5 mg/kg/injection, schedule: Q01DX005 (ip), vehicle: saline 112 % of control

O=c1c(-c2ccc3c(c2)OCO3)coc2c3c(ccc12)OCO3
inactive: dose: 8.0 mg/kg/injection, schedule: Q01DX005 (ip), vehicle: Klucel (hydroxypropylcellulose) (HPC) 93 % of control | dose: 16.0 mg/kg/injection, schedule: Q01DX005 (ip), vehicle: Klucel (hydroxypropylcellulose) (HPC) 100 % of control | dose: 32.0 mg/kg/injection, schedule: Q01DX005 (ip), vehicle: Klucel (hydroxypropylcellulose) (HPC) 94 % of control | dose: 64.0 mg/kg/injection, schedule: Q01DX005 (ip), vehicle: Klucel (hydroxypropylcellulose) (HPC) 88 % of control

CCCCCCCCCCCCCCCCCCSc1c(OC)c(OC(C)=O)c(OC)c(OC)c1OC(C)=O
inactive: [1] 87 % of control | dose: 8.0 mg/kg/injection, schedule: Q01DX009 (ip), vehicle: Klucel (hydroxypropylcellulose) (HPC) 98 % of control | dose: 16.0 mg/kg/injection, schedule: Q01DX009 (ip), vehicle: Klucel (hydroxypropylcellulose) (HPC) 96 % of control | dose: 32.0 mg/kg/injection, schedule: Q01DX009 (ip), vehicle: Klucel (hydroxypropylcellulose) (HPC) 98 % of control

CCOC(=O)N1CC2C3CN(C(=O)OCC)C4CC3(C(=O)O)C1CC24C(=O)O
inactive: [4] 109 % of control | [5] 100 % of control | [6] 102 % of control

C#CC1(O)CC(c2ccccc2)N(C)C(c2ccccc2)C1 (stereo not drawn)
inactive: dose: 12.5 mg/kg/injection, schedule: Q01DX005 (ip), vehicle: saline with Tween-80 93 % of control | dose: 25.0 mg/kg/injection, schedule: Q01DX005 (ip), vehicle: saline with Tween-80 98 % of control | dose: 50.0 mg/kg/injection, schedule: Q01DX005 (ip), vehicle: saline with Tween-80 98 % of control and 87 % of control

COc1cc(NC(=O)CN(CCCl)CCCl)cc(OC)c1OC
active: [3] 157 % of control | [4] 213 % of control | dose: 100.0 mg/kg/injection, schedule: Q01DX009 (ip), vehicle: saline sonified 163 % of control | dose: 200.0 mg/kg/injection, schedule: Q01DX009 (ip), vehicle: saline sonified 159 % of control
inactive: [5] 120 % of control | dose: 132.0 mg/kg/injection, schedule: Q04DX003 (ip), vehicle: saline sonified 100 % of control | dose: 200.0 mg/kg/injection, schedule: Q04DX003 (ip), vehicle: saline sonified 110 % of control

Nc1csc(Nc2c3ccccc3nc3ccccc23)n1
inactive: dose: 12.5 mg/kg/injection, schedule: Q04DX002 (ip), vehicle: distilled water + Tween-80 98 % of control | dose: 25.0 mg/kg/injection, schedule: Q04DX002 (ip), vehicle: distilled water + Tween-80 97 % of control

c1ccc2c(CC3=NCCN3)noc2c1
inactive: [7] 98 % of control | [8] 105 % of control | [9] 103 % of control and 107 % of control

CCOP(=O)(N1CC1(C)C)N1CC1(C)C (stereo not drawn)
active: dose: 20.0 mg/kg/injection, schedule: Q01DX009 (ip), vehicle: saline 159 % of control | dose: 30.0 mg/kg/injection, schedule: Q01DX009 (ip), vehicle: saline 194 % of control | [9] 252 % of control
inactive: dose: 5.0 mg/kg/injection, schedule: Q01DX009 (ip), vehicle: saline 109 % of control

CCCCCCCCCCCCCCCCOc1ccc(OC)cc1C(=O)NNC(=S)SC
inactive: dose: 50.0 mg/kg/injection, schedule: Q01DX009 (ip), vehicle: saline + alcohol 100 % of control | dose: 100.0 mg/kg/injection, schedule: Q01DX009 (ip), vehicle: saline + alcohol 103 % of control | dose: 200.0 mg/kg/injection, schedule: Q01DX009 (ip), vehicle: saline + alcohol 87 % of control
